{"source": "patent EP0287830A1", "about": "“Alkanoic acid alkyl esters, method for their production and the application of aqueous emulsions of these esters in vaccines” (priority 1987, dated 1988)", "key": {"[1]": {"assay": "Tolerability of emulsions in guinea pig test model", "type": "in vivo, Meerschweinchen", "conditions": "Meerschweinchentestmodell"}, "[2]": {"assay": "Immunostimulatory and adjuvant effect in mouse test model", "type": "in vivo, Mäuse", "conditions": "as component of an oil-in-water emulsion, Mäusetestmodell"}}}
{"substance": "Hexansäurehexylester [Verbindung 2]", "values": [{"measurement": "Verträglichkeit der Emulsionen", "setting": "[1]", "result": "sehr gut verträglich"}, {"measurement": "immunstimulatorische und adjuvante Wirkung", "setting": "[2]", "result": "immunstimulatorische und adjuvante Wirkung"}]}
